Laboratory results reported in ChEMBL document CHEMBL1138756, “Entry into a new class of potent proteasome inhibitors having high antiproliferative activity by structure-based design” (J Med Chem, 2004).

Legend:
Proteasome [1] = test: Inhibition of post glutamyl l-peptide (PGPH) proteolytic activity of purified human proteasome
Proteasome [2] = test: Inhibition of chymotrypsin-like proteolytic activity of purified human proteasome; format: subcellular
Proteasome [3] = test: Inhibition of trypsin-like proteolytic activity of purified human proteasome; format: subcellular
Proteasome [4] = test: Inhibition of chymotrypsin-like proteolytic activity of purified human proteasome in cultured MDA-MB 435 Cells; format: subcellular
MDA-MB-435 = test: Inhibition of MDA-MB 435 cell proliferation; format: functional, cell-based; conditions: Homo sapiens

Row | Structure (SMILES) | IC50 (Proteasome [1]) [nM] | IC50 (Proteasome [2]) [nM] | IC50 (Proteasome [3]) [nM] | IC50 (Proteasome [4]) [nM] | IC50 (MDA-MB-435) [nM]
1 | COc1ccc(CNC(=O)[C@@H](NC(=O)[C@H](Cc2ccc(OC)c(OC)c2)NC(=O)Cc2ccccc2)C(C)C)c(O)c1 | – | 1000 | – | – | –
2 | COc1ccc(CN[C@@H](C(=O)N[C@H](C(=O)NCc2ccc(OC)cc2O)C(C)C)[C@H](O)[C@H](Cc2ccccc2)NC(=O)[C@@H](NC(=O)OCc2ccccc2)C(C)(C)C)cc1 | > 20000 | 900 | > 20000 | – | –

These reach a lower IC50 (Proteasome [2]). Values come first.

Row | IC50 (Proteasome [1]) [nM] | IC50 (Proteasome [2]) [nM] | IC50 (Proteasome [3]) [nM] | IC50 (Proteasome [4]) [nM] | IC50 (MDA-MB-435) [nM] | Structure (SMILES)
3 | > 20000 | 10 | > 20000 | 20 | 60 | COc1ccc(CNC(=O)[C@@H](NC(=O)[C@H](Cc2cc(OC)c(OC)c(OC)c2)NC(=O)Cc2cccc(Oc3ccccc3)c2)C(C)C)c(O)c1
4 | > 20000 | 60 | > 20000 | – | 900 | COc1ccc(CNC(=O)[C@@H](NC(=O)[C@H](Cc2ccc(OC)c(OC)c2)NC(=O)Cc2cccc(Oc3ccccc3)c2)C(C)C)c(O)c1
5 | > 20000 | 7 | > 20000 | – | 1500 | COc1ccc(CNC(=O)[C@@H](NC(=O)[C@H](NCc2cc(OC)c(OC)c(OC)c2)[C@H](O)[C@H](Cc2ccccc2)NC(=O)[C@@H](NC(=O)Cc2cccc3ccccc23)C(C)(C)C)C(C)C)c(O)c1
